The source of these data is patent US20250304620A1, “ANTIMICROBIAL PEPTIDE AND APPLICATION THEREOF” (priority 2023, published 2025).

≈ marks a conversion by molar mass, not a printed value. Non-standard residues stand in square brackets, D forms with d. Residues, ends and D or L forms follow the SMILES beside them. Phe(3,4-F2) = N[C@@H](Cc1ccc(F)c(F)c1)C(=O)O; 2Nal = N[C@@H](Cc1ccc2ccccc2c1)C(=O)O

In series [1] the test system is Staphylococcus aureus (NRS 384). Nature of the series: microbe, parasite or virus in culture. It counts as cell-based. In a few lines:
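MICs were read against S. aureus strain NRS 384 using twofold serial dilution by CLSI microdilution rules. Levofloxacin and Cbf-K16 were the reference controls, and the test was repeated 5 times in parallel.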

The subject of another series is rabbit red blood cells. Format: cell-based. As to conditions: red cells of rabbit, 1 h. As for the experimental part: Fresh rabbit blood ([…]) was collected and centrifuged at 500 g for 5 min, a supernatant was discarded, and red blood cells were repeatedly washed with phosphate-buffered saline (PBS, 0.01 M, pH 7.4) until the supernatant was clear. The red blood cells (RBCs) were resuspended to 10 mL, and diluted 25-fold with PBS (0.01 M, pH 7.4) to prepare a red blood cell suspension with a concentration of about 2×10^8 RBC/mL. The AMPs were subjected to gradient dilution with normal saline (0.85%, w/v, NaCl) according to a multiple dilution method, final concentrations of the SMPs were 1.95, 3.9, 7.8, 15.6, 31.3, 62.5, 125, 250, 500, 1000, and 2000 μg/mL. 100 μl of polypeptide solution was taken and added to a 96-well plate with 5 replicates for each concentration; 100 μl of rabbit blood with a red blood cell count of about 2×10^8 RBC/mL was then added to each well, the plate was incubated at 37° C. for 1 h, centrifuged at 500 g for 5 min, 100 μl of supernatant was taken and transferred to a new 96-well plate, and an optical density (OD) at a wavelength of 541 nm was measured using a microplate reader. Triton X-100 (10 mg/mL as a starting concentration, two-fold gradient dilution) was used as a positive control group. A hemolysis rate was calculated using the following formula: Hemolysis rate (%)=[(OD541 of experimental group-OD541 of negative control group)/(OD541 of positive control group−OD541 of negative control group)]×100% Specific results of the hemolysis test are shown in Table 6. Minimum hemolytic concentration (MHC): a lowest drug concentration that can cause 10% hemolysis.

Series [2] relates to Methicillin-sensitive Staphylococcus aureus (NRS 384). Format: in vivo, ICR mice. As to conditions: topical formulation 1 mg/mL, 0.1 mL twice a day for 4 days, mouse back skin infection. As for the experimental part: (§1) Both female and male ICR mice were used in the test, half of the female and male mice were taken and randomly assigned into groups, with 10 mice in each group, and kept in separate cages. The mice were divided into a blank group, a model group, a positive control Methicillin group, and topical formulation groups of AMPs LV-1 to LV-30. Suspensions of Methicillin-sensitive Staphylococcus aureus (NRS 384) and Methicillin-resistant Staphylococcus aureus (MRSA) were prepared, and their concentrations were adjusted to a concentration of 5×10^6 CFU/mL for subsequent use. Hair on backs of the mice was shaved with a shaver, wound was created on back skin of each mouse using a biopsy punch, and the wound was then infected with Methicillin-sensitive Staphylococcus aureus and Methicillin-resistant Staphylococcus aureus (0.1 mL, 5×10^6 CFU/mL) to establish infection models. Except for the blank group and the model group, all other groups received corresponding topical formulations applied directly to the infected areas, with a dose of 0.1 mL, twice a day for 4 consecutive days. On the day following the final administration, skin from the infected sites of each group was aseptically collected, and an antibacterial rate was calculated.

Series [3] has as its system Methicillin-resistant Staphylococcus aureus (MRSA). Format: in vivo, ICR mice. As to conditions: topical formulation 1 mg/mL, 0.1 mL twice a day for 4 days, mouse back skin infection. As for the experimental part:
as §1

The test system of series [4] is Staphylococcus aureus (NRS 384). The following applies: 37° C., 3 h. The procedure:
Trypsin (250 U/mg, pH=8.0) and AMPs (LV-1 to LV-30) were mixed in a ratio of 1:10 (w/w) and added to a reaction buffer (0.2 M sodium phosphate, 1 mM CaCl2), pH 7.5), and then incubated at 37° C. for 3 h.

Take `CC(=O)N[C@@H](CCCNC(=N)N)C(=O)N[C@@H](CCCNC(=N)N)C(=O)N[C@@H](CC(C)C)C(=O)N[C@@H](CC(C)C)C(=O)N[C@@H](Cc1ccc2ccccc2c1)C(=O)N[C@@H](CCCCN)C(=O)N[C@@H](CC(C)C)C(=O)N[C@@H](CCCCN)C(=O)N[C@@H](Cc1ccc2ccccc2c1)C(=O)N[C@@H](CCCCN)C(=O)N[C@@H](CCCNC(=N)N)C(N)=O` [LV-54] (Ac-RRLL[2Nal]KLK[2Nal]KR-NH2): in series [1] (NRS 384), the “MIC against Staphylococcus aureus (NRS 384)” value (from here on “MIC … (NRS 384)”) came out at 8 µg/mL (≈ 4.86 µM). The “MHC (minimum hemolytic concentration, lowest concentration causing 10% hemolysis)” value in the series with rabbit red blood cells is above 1000 µg/mL.

As for `CC(=O)N[C@@H](CCCCN)C(=O)N[C@@H](CCCCN)C(=O)N[C@@H](CC(C)C)C(=O)N[C@@H](CC(C)C)C(=O)N[C@@H](Cc1ccc(F)c(F)c1)C(=O)N[C@@H](CCCNC(=N)N)C(=O)N[C@@H](CC(C)C)C(=O)N[C@@H](CCCCN)C(=O)N[C@@H](Cc1ccc(F)c(F)c1)C(=O)N[C@@H](CCCNC(=N)N)C(=O)N[C@@H](CCCCN)C(N)=O` [LV-55] (Ac-KKLL[Phe(3,4-F2)]RLK[Phe(3,4-F2)]RK-NH2), the “MIC … (NRS 384)” value in series [1] (NRS 384) was 4 µg/mL (≈ 2.52 µM). The “MHC (minimum hemolytic concentration, lowest concentration causing 10% hemolysis)” value in the series on rabbit red blood cells was above 1000 µg/mL.

For `COc1cccc(OC)c1C(=O)N[C@@H]1C(=O)N2[C@@H]1SC(C)(C)[C@@H]2C(=O)O` [Methicillin, reference compound], in series [2], the “Inhibition rate against Methicillin-sensitive Staphylococcus aureus (%)” value was determined as 84.83%. Besides, in series [3], the “Inhibition rate against Methicillin-resistant Staphylococcus aureus (%)” value is recorded as 1.05%.

Turning to Ac-RKLLFRLKFRK-NH2 [LV-32], the “MIC … (NRS 384)” value in series [1] (NRS 384) was determined as 4 µg/mL. Further, the “MHC (minimum hemolytic concentration, lowest concentration causing 10% hemolysis)” value in the series with rabbit red blood cells is above 1000 µg/mL.

On to “KFFRKLKKSVKKRAKKFFKKPRVIGVSIPF [Cbf-K16, reference compound]”, for which the “MIC … (NRS 384)” value in series [1] (Staphylococcus aureus (NRS 384)) was determined as 32 µg/mL. Further, the “Trypsin MIC” value in series [4] (MIC vs Staphylococcus aureus (NRS 384) after trypsin treatment 1:10 (w/w)) was above 128 µg/mL. The “MIC values after trypsin treatment” value in series [4] (trypsin:AMP 1:10 (w/w), Staphylococcus aureus (NRS 384)) was “lost its antimicrobial activity”.
